Source: publication PMC6963822, “Phenolic Compounds from the Aerial Parts of Blepharis linariifolia Pers. and Their Free Radical Scavenging and Enzyme Inhibitory Activities” (Medicines, 2019)

Tests used:
α-glucosidase [1] = assay: α-Glucosidase inhibitory activity; format: biochemical, Saccharomyces cerevisiae; conditions: substrate p-nitrophenyl-α-D-glucopyranoside, 37 °C, pH 6.8, triplicate; for IC50: read-out: Enzyme Inhibitory Activities α-Glucosidase IC50
Text: (§1) 1,1-Diphenyl-2-picrylhydrazyl (DPPH) and the enzymes α-glucosidase (from Saccharomyces cerevisiae), porcine pancreatic lipase, and mushroom tyrosinase were purchased from Sigma Aldrich, Co. (Tokyo, Japan). […] Cetilistat was obtained from Combi-Blocks, San Diego, USA, and arbutin was purchased from Nacalai Tesque, Inc. (Kyoto, Japan). 2-Morpholinoethanesulfonic acid monohydrate (MES) was purchased from Dojindo Chemical Research (Kumamoto, Japan).
The α-glucosidase inhibitory activity was determined according to the method reported by Jabeen et al. with slight modifications. In 96-well plate, 60 μL of 0.2 M phosphate buffer (pH = 6.8), 10 μL of the test sample (final concentration range of 100 to 1.56 μg/mL), and 10 μL of α-glucosidase solution (prepared in phosphate buffer to obtain 1 U/mL) were added. The mixture was incubated at 37 °C for 5 min and 20 μL of 4 mM p-nitrophenyl-α-D-glucopyranoside substrate were added. After 12 min of incubation at 37 °C, the released p-nitrophenol was measured at 405 nm using a spectrophotometer. The percentage inhibition of α-glucosidase activity was calculated using the equation: Inhibition (%) = (1 − (Aa − Ab)/(Ac − Ad)) × 100, in which Aa is the absorbance with test sample and enzyme, Ab is the absorbance with test samples but without enzyme, Ac is the absorbance with enzyme but without test sample, and Ad is the absorbance without test samples and enzymes.
(§2) All the experiments were performed in triplicate. The data was analyzed using Microsoft Office Excel (2007) and results for DPPH free radical and in vitro enzyme inhibitory activities were expressed as IC50 value (μM).

mushroom tyrosinase [2] = assay: Tyrosinase inhibitory activity; format: biochemical, Agaricus bisporus; conditions: substrate L-tyrosine, 25 °C, pH 6.8, triplicate; read-out: Enzyme Inhibitory Activities Tyrosinase IC50
Text: Antioxidants are substances that scavenge free radicals and related reactive species. Free radicals amend vital body composition such as lipids and proteins, resulting in serious conditions such as inflammatory conditions, atherosclerosis, and cancerous diseases. Therefore, dietary antioxidants are undertaken for enhancing health conditions for people under precarious sanitary conditions or to prevent serious and chronic illnesses such as neurodegenerative diseases, diabetes, and hyperlipidemia. Diabetes mellitus (DM) is a metabolic disorder characterized by high blood glucose, which is likely to cause serious side effects such as retinopathy and cataracts. […] Obesity is another example of a metabolic disorder associated with several co-morbidities, with an increasing prevalence every year. Excessive lipid accumulation could be one of the causative factors for type II diabetes, as the accumulation of lipid in the pancreas causes dysfunction of insulin-producing pancreatic β-cells. […] Tyrosinase is a key enzyme in the process of melanin synthesis. It has been isolated and identified from different sources. Among them, mushroom tyrosinase, from Agaricus bisporus, is a major source and is widely used due to its high similarity and homology to human tyrosinase. Despite the important protective role of melanin against UV-sunlight radiation, excess accumulation of this pigment results in harmful skin disorders and severe cases may cause skin cancer. […] (Tokyo, Japan). […] obtained from Combi-Blocks, San Diego, USA, and arbutin was purchased from Nacalai Tesque, Inc. (Kyoto, Japan). 2-Morpholinoethanesulfonic acid monohydrate (MES) was purchased from Dojindo Chemical Research (Kumamoto, Japan). The tyrosinase inhibitory activity was evaluated using the method reported by […] et al., with slight modifications. […] The mixture was incubated at 25 °C for 10 min. Finally, 20 μL of the substrate L-tyrosine (2 mM) were added, and the absorbance was measured at 476 nm. […] Arbutin was used as the positive control. […] All the experiments were performed in triplicate. The data was analyzed using Microsoft Office Excel (2007) and results for DPPH free radical and in vitro enzyme inhibitory activities were expressed as IC50 value (μM).

[3] = DPPH free radical scavenging activity; conditions: 20 min, room temperature, absorbance at 520 nm, triplicate
Protocol: The antioxidant potential was determined using the 1,1- diphenyl-2-picrylhydrazyl (DPPH) radical scavenging method with minor modifications. In a 96-well plate, 25 μL of compound solution of different concentrations were added, followed by the addition of 75 μL of 50% EtOH and 50 μL MES buffer (200 mM, pH = 6.0). Finally, 50 μL of freshly prepared DPPH solution in ethanol (800 μM) were added, and the assay plate was incubated for 20 min in the dark at room temperature. The antioxidant activity corresponding to scavenging of DPPH radicals was measured at 520 nm with UV spectrophotometer using the following formula: Radical scavenging activity (%) = 100 × (A − B)/A, where A is the control absorbance of DPPH radicals without samples and B is the absorbance after reacting with samples. Trolox was used as the positive control.
as §2

[4] = molecular target: T1, porcine pancreatic lipase (Sus scrofa, UniProt P00591); assay: Pancreatic lipase inhibitory activity; format: biochemical; conditions: substrate 4-methylumbelliferyl oleate, pH 7.4, triplicate; for IC50: read-out: Enzyme Inhibitory Activities Lipase IC50
T1 construct: purchased Sigma Aldrich, Co. (Tokyo, Japan)
T1 sequence (P00591 1-450): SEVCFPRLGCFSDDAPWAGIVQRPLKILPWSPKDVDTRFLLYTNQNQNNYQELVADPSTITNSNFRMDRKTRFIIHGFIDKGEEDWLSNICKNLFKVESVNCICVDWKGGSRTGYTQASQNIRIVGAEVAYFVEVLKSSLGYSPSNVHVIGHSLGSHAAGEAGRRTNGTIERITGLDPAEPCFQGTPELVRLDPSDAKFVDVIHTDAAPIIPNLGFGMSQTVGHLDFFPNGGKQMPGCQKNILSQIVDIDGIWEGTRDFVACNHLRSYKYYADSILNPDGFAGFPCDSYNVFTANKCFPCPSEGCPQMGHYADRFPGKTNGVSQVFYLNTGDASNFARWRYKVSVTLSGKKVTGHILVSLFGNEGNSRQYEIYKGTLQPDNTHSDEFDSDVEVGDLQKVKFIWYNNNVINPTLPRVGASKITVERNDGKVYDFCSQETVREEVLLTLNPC
Text: as §1
Evaluation of pancreatic lipase inhibitory activity was performed by measuring the release of 4-methylumbelliferone (4MUF) from the substrate 4-methylumbelliferyl oleate (4MUFO) as reported by Bitou et al. with slight modifications. Briefly, 50 μL of the test sample and 50 μL of pancreatic lipase (100 μg/mL in phosphate buffer of 0.2 M, pH 7.4) were mixed and incubated at room temperature for 10 min. Afterward, 100 μL of the substrate 4MUFO (0.5 mM) was added. After 10 min, the fluorescence from the release of 4MUF was measured using a microplate reader with excitation and emission wavelengths of 355 and 460 nm, respectively. Cetilistat was used as the positive control. The percentage of pancreatic lipase inhibitory activity was calculated using the following equation: Inhibition (%) = (1 − (As/Ac) × 100), where As and Ac are the absorbance of sample and control, respectively.
as §2

α-glucosidase [5] = test system: α-glucosidase; parameters: method as in PMID 27581205; conditions: cited from earlier work
mushroom tyrosinase [6] = conditions: cited from earlier work

Row | SMILES | IC50 (α-glucosidase [1]) | IC50 (mushroom tyrosinase [2]) | IC50 [3] | Enzyme Inhibitory Activities Lipase IC50 [4] | IC50 [4] | Enzyme Inhibitory Activities α-Glucosidase IC50 (α-glucosidase [1]) | mode of α-glucosidase inhibition (α-glucosidase [5]) | inhibitory activity for mushroom tyrosinase (mushroom tyrosinase [6]) | tyrosinase inhibitory activity (mushroom tyrosinase [6])
1 | O=C(/C=C/c1ccc(O)cc1)OC[C@H]1O[C@@H](Oc2cc(O)c3c(c2)OC(c2ccc(O)cc2)CC3=O)[C@H](O)[C@@H](O)[C@@H]1O (some centres unmarked) [6″-O-p-Coumaroylprunin (4), 6″-O-p-coumaroylprunin] | 46.3 ± 2.92 µM | 136.1 ± 0.78 µM | 186.2 ± 1.19 µM | active | 2.25 ± 0.17 µM | – | – | – | –
2 | O=c1cc(-c2ccc(O)cc2)oc2cc(O)cc(O)c12 [Apigenin (3), apigenin] | 34.7 ± 1.78 µM | 23.1 ± 1.83 µM | 386.3 ± 3.42 µM | active | 12.5 ± 2.04 µM | – | reversibly inhibit α-glucosidase in a noncompetitive manner | – | –
3 | C[C@@H]1O[C@@H](O[C@@H]2[C@@H](O)[C@H](OCCc3ccc(O)c(O)c3)O[C@H](CO)[C@H]2OC(=O)/C=C/c2ccc(O)c(O)c2)[C@H](O)[C@H](O)[C@H]1O [Verbascoside (1), verbascoside] | – | 97.4 ± 2.48 µM | 22.03 ± 0.04 µM | inactive | – | neither showed inhibitory activities | – | – | –
4 | CCCCCCCCCCCCCCCCOc1nc2ccc(C)cc2c(=O)o1 [Cetilistat, reference compound] | – | – | – | – | 18.4 ± 1.71 µM | – | – | – | –
5 | OC[C@H]1O[C@@H](Oc2ccc(O)cc2)[C@H](O)[C@@H](O)[C@@H]1O [Arbutin, arbutin, reference compound] | – | 436 ± 3.71 µM | – | – | – | – | – | – | –

Continued, in another order:

Row | IC50 (α-glucosidase [1]) | IC50 (mushroom tyrosinase [2]) | IC50 [3] | Enzyme Inhibitory Activities Lipase IC50 [4] | IC50 [4] | Enzyme Inhibitory Activities α-Glucosidase IC50 (α-glucosidase [1]) | SMILES | mode of α-glucosidase inhibition (α-glucosidase [5]) | inhibitory activity for mushroom tyrosinase (mushroom tyrosinase [6]) | tyrosinase inhibitory activity (mushroom tyrosinase [6])
6 | – | – | 39.07 ± 0.31 µM | – | – | – | Cc1c(C)c2c(c(C)c1O)CCC(C)(C(=O)O)O2 (centres unmarked) [Trolox, 6-Hydroxy-2,5,7,8-tetramethylchroman-2-carboxylic acid, reference compound] | – | – | –
7 | – | – | 217 ± 3.01 µM | inactive | – | neither showed inhibitory activities | COc1cc(C(=O)O)ccc1O [Vanillic acid (2), vanillic acid] | – | did not show any inhibitory activity | weak
